Tests used:
[1] = test system: autoantibodies in plasma samples from schizophrenic patients; test: Enzyme immunoassay: binding of biotin-labeled peptide on streptavidine coated tubes to plasma of schizophrenic patients; parameters: species or system human; conditions: 39 schizophrenic patients; FIG. 3
Protocol: (§1) • 1. Patients and control persons—Thirty-nine schizophrenic patients participated in this study. The following parameters were recorded: gender, age, duration of schizophrenia, number of hospitalizations, years of education and the psychiatric status (PANSS). Fifty plasma samples were obtained from a local blood bank. • 2. Plasma—Venous blood was drawn with heparin as […] from patients and control subjects. Plasma was obtained after centrifugation (4000 g; 15 mins. 4° C.). • 3. Peptide synthesis and biotin labeling—The peptides were synthesized on an Abimed 522 at a 10 micromol scale by Eurosequence b.v., (Nijenborgh 4: 9747 AG Groningen; The Netherlands) and labeled at the amino terminal with biotin containing a six carbon spacer. Peptide purity was routinely assessed by RP-HPLC and, when considered necessary, by laser desorption mass spectroscopy. The peptides were routinely dissolved in 1 ml water/DMF/DMSO (1:1:1; v/v/v). • 4. […] The absorbence was read at 450 nm spectrophotometrically. […]
(§2) Therefore, an experiment was carried out with the biotin-LVVGLCK as follows: the peptide was biotin-labeled and coated onto streptavidine coated tubes as explained above. Plasma samples of 39 schizophrenic patients and 50 control non schizophrenic individuals were tested with the coated peptide and the level of binding was determined by the enzyme immunoassay described above.

[2] = test system: plasma samples from non schizophrenic individuals; test: Enzyme immunoassay: binding of biotin-labeled peptide on streptavidine coated tubes to control plasma; parameters: species or system human; conditions: 50 control individuals; FIG. 3
Protocol: as §1, §2

level of binding, mean value and standard deviation, plasma of schizophrenic patients [1]: 1.47±0.65 O.D.
level of binding, mean value and standard deviation, plasma of non schizophrenic individuals [2]: 0.46±0.21 O.D.
Substance: LVVGLCK

Reference: US7354991B2, “Peptides for the diagnosis of schizophrenia” (Yeda Research and Development Co. Ltd, priority 2001, dated 2008)
